Laboratory results as given in paper PMC10700139 (Nature, 2023).
Where “and” joins values, the source holds several entries; their conditions need not be identical. Identical values can stand only once.

Tests used:
[1] = Stability of isolated 9 in deuterated solvents (1H NMR, LC-MS); assay type: physicochemical; conditions: resuspended in CDCl3 or CD3OD, 1H NMR over time
Experimental: Also, on drying of our sample from CDCl3, we noted a colour change from yellow/brown to red. Loss of our compound was confirmed through LC–MS analysis. However, we observed that during the course of purification, a compound pertaining to an oxidation of 9 ([…]; equal to 9 + oxygen) accumulated to high concentrations. […] As such, we purified this compound using the same strategy outlined above (yield of about 3 mg) and determined a putative structure (proposed 9′) through NMR analysis. For 9′, deuterated ACN (CD3CN) was used as a solvent and spectra were collected on a Varian Inova 600 MHz NMR spectrometer at room temperature (Supplementary Figs. 12–18).

PtCAL-1a/PtCAL-2a = target: T1, PtCAL-1a/PtCAL-2a (Phlegmariurus tetrastichus, UniProt P0DXL1+P0DXL3); assay: In vitro reactions with apoplastic PtCAL-1a/PtCAL-2a (formation of 9, decarboxylation of 3, Zn chelator); assay type: biochemical
T1 construct: N-terminal signal peptide[58], which would be cleaved during processing and trafficking of these proteins; made in house; host or cells: Nicotiana benthamiana leaves (Agrobacterium transient co-expression, pEAQ-HT), concentrated apoplast extract
T1 sequence (P0DXL1 22-280): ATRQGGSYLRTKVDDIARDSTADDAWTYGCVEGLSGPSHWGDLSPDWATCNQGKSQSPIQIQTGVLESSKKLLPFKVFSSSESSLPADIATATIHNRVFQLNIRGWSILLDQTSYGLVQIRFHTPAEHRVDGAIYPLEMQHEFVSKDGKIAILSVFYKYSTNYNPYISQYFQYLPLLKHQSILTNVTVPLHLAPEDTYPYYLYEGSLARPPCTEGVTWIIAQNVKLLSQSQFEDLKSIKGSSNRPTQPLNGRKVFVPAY
T1 sequence (P0DXL3 24-284): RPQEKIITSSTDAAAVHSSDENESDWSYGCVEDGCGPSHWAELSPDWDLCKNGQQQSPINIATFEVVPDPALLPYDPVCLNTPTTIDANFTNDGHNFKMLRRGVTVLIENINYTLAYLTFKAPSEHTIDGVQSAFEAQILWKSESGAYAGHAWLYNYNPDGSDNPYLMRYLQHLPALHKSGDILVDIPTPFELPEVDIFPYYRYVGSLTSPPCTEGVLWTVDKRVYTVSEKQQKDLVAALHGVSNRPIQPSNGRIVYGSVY
Source text: The three CAL proteins identified in this study have predicted N-terminal signal peptides, which were identified using the TargetP-2.0 server (https://services.healthtech.dtu.dk/service.php?TargetP-2.0)[58]. […] To assess this possibility, CAL genes with or without C-terminal 6xHis tags were transiently expressed in N. benthamiana, as described above. Each CAL gene was expressed individually; also, PtCAL-1a and PtCAL-2a were transiently co-expressed in the same leaf because we had found them to cofunction in Lycopodium alkaloid biosynthesis. At 4 days after Agrobacterium infiltration, apoplast protein extracts were isolated using the infiltration–centrifugation method, much as previously described. Two leaves per reaction were excised from the plant and submerged in ice-cold apoplast extraction buffer (100 mM MES, 300 mM NaCl, pH 5.5) in an open-capped 50 ml Falcon tube and these tubes were placed in a plastic vacuum chamber attached to a Welch Model 2025 vacuum pump. The chamber was brought down to full vacuum and after 2 min at this pressure, the vacuum was slowly released to allow for buffer to infiltrate the leaf apoplastic space. Buffer-infiltrated leaves were carefully removed from the Falcon tubes, blotted dry with paper towels and were then rolled into Parafilm and placed in a plungerless 5 ml plastic syringe. The syringe was placed in a 15 ml Falcon tube and this was then centrifuged at 1,000g and 4 °C for 10 min to collect apoplast extract. The resulting extract was centrifuged at 10,000g and 4 °C for 15 min to pellet any larger cellular debris and the supernatant was concentrated using an Amicon Ultra-4 Centrifugal Filter Unit (10 kDA MWCO, MilliporeSigma UFC501024). Protein concentrations were measured using the BIO-RAD Protein Assay or Bradford assay (Abcam 119216) and adjusted with apoplast extraction buffer to a final concentration between 0.5 and 1.5 mg ml^−1. Aliquots of the extracts were snap frozen in liquid nitrogen and stored at −80 °C.
Reactions with CAL-enriched apoplast were routinely performed in low-pH potassium phosphate buffer (50 mM potassium phosphate, 100 mM NaCl, pH 5.9) at a volume of 20 µl. For PtCAL-1a/PtCAL-2a, these reactions contained approximately 1.4 µg of apoplast protein for each CAL (final concentration of 0.07 µg µl^−1). Control reactions used apoplast from leaves expressing only one CAL or with apoplast generated from GFP-expression N. benthamiana leaves. The requisite substrates for this reaction were generated through the activities of in vitro PtPIKS-1 and PtCYP782C1 enzyme reactions. […]. To generate 3 and 4 as potential substrates, 1 µg of previously purified PtPIKS-1 enzyme[23] and 150 µM 1 and 300 µM malonyl-CoA were added directly to the CAL reaction mixtures. After thorough mixing, reactions were incubated at room temperature. An alternative route for producing 3 and 4 independently of thioester intermediates was achieved by mixing stocks of 1 (10 mM in water) and 2 (10 mM in water; always prepared fresh to minimize compound decomposition) in equal proportion, followed by incubation at room temp for 1–2 h, as these two substrates can non-enzymatically condense to yield 3 (which can spontaneously decarboxylate to produce 4). A 2 µl aliquot of this mixture was then added as a component of the PtCAL-1a/PtCAL-2a enzyme reaction (20 µl total reaction volume) in addition to the PtCYP782C1 microsomal reaction mixture. After predesignated incubation times, reactions were quenched by diluting tenfold into ACN with 0.1% formic acid.
To evaluate the potential decarboxylation of β-keto acid substrates by PtCAL-1/PtCAL-2 and PtCAL-3, only 3 or 2, respectively, were added as substrate. PtCAL-1/PtCAL-2 reactions were quenched by diluting aliquots tenfold into ACN with 0.1% formic acid and were subsequently analysed through HILIC LC–MS. PtCAL-3 reactions were quenched by mixing aliquots with an equal volume of water with 0.2% formic acid and were then analysed through C18 LC–MS. […]

## CC1CC2=NCCCC2=C(CC2CCCCN2)C1 (centres unmarked) [compound 9]
[1]
  stability of isolated compound: relatively unstable
PtCAL-1a/PtCAL-2a; PtCAL-1a/PtCAL-2a +3, +8, +PDCA, +Zn, 0.5 hrs (ED 4i)
  ion abundance of 9 (m/z 164.1434) over time: 127782 and 135642 and 127803
PtCAL-1a/PtCAL-2a; PtCAL-1a/PtCAL-2a +3, +8, +PDCA, +Zn, 2 hrs (ED 4i)
  ion abundance of 9 (m/z 164.1434) over time: 473171 and 458012 and 448492
PtCAL-1a/PtCAL-2a; PtCAL-1a/PtCAL-2a +3, +8, +PDCA, +Zn, 6 hrs (ED 4i)
  ion abundance of 9 (m/z 164.1434) over time: 1066834 and 1174532 and 1104641
PtCAL-1a/PtCAL-2a; PtCAL-1a/PtCAL-2a +3, +8, +PDCA, +Zn, 24 hrs (ED 4i)
  ion abundance of 9 (m/z 164.1434) over time: 1783309 and 1828274 and 1979732
PtCAL-1a/PtCAL-2a; PtCAL-1a/PtCAL-2a +3, +8, +PDCA, 0.5 hrs (ED 4i)
  ion abundance of 9 (m/z 164.1434) over time: 126896 and 128709 and 118410
PtCAL-1a/PtCAL-2a; PtCAL-1a/PtCAL-2a +3, +8, +PDCA, 2 hrs (ED 4i)
  ion abundance of 9 (m/z 164.1434) over time: 460080 and 448051 and 514634
PtCAL-1a/PtCAL-2a; PtCAL-1a/PtCAL-2a +3, +8, +PDCA, 6 hrs (ED 4i)
  ion abundance of 9 (m/z 164.1434) over time: 1133647 and 1079904 and 1109219
PtCAL-1a/PtCAL-2a; PtCAL-1a/PtCAL-2a +3, +8, +PDCA, 24 hrs (ED 4i)
  ion abundance of 9 (m/z 164.1434) over time: 1692906 and 1937168 and 1863327
PtCAL-1a/PtCAL-2a; PtCAL-1a/PtCAL-2a +3, +8, 0.17 hrs
  ion abundance of 9 (m/z 164.1434) over time: 5042 and 4513 and 5355
PtCAL-1a/PtCAL-2a; PtCAL-1a/PtCAL-2a +3, +8, 0.5 hrs (ED 4i)
  ion abundance of 9 (m/z 164.1434) over time: 123276 and 137673 and 112913
PtCAL-1a/PtCAL-2a; PtCAL-1a/PtCAL-2a +3, +8, 2 hrs (ED 4i)
  ion abundance of 9 (m/z 164.1434) over time: 446630 and 485400 and 412047
PtCAL-1a/PtCAL-2a; PtCAL-1a/PtCAL-2a +3, +8, 6 hrs (ED 4i)
  ion abundance of 9 (m/z 164.1434) over time: 1143938 and 1142219 and 1013243
PtCAL-1a/PtCAL-2a; PtCAL-1a/PtCAL-2a +3, +8, 8.00 hrs
  ion abundance of 9 (m/z 164.1434) over time: 777915 and 631565 and 1080330
PtCAL-1a/PtCAL-2a; PtCAL-1a/PtCAL-2a +3, +8, 20.00 hrs
  ion abundance of 9 (m/z 164.1434) over time: 2280194 and 1799167 and 2350932
PtCAL-1a/PtCAL-2a; PtCAL-1a/PtCAL-2a +3, +8, 24.00 hrs
  ion abundance of 9 (m/z 164.1434) over time: 2573277 and 1958546 and 2242168
PtCAL-1a/PtCAL-2a; PtCAL-1a/PtCAL-2a +3, +8, 24 hrs (ED 4i)
  ion abundance of 9 (m/z 164.1434) over time: 1814580 and 1825623 and 1787378
PtCAL-1a/PtCAL-2a; PtCAL-1a/PtCAL-2a +3, +8, +PtCAL-3, 0.17 hrs
  ion abundance of 9 (m/z 164.1434) over time: 8935 and 8139 and 7454
PtCAL-1a/PtCAL-2a; PtCAL-1a/PtCAL-2a +3, +8, +PtCAL-3, 0.50 hrs
  ion abundance of 9 (m/z 164.1434) over time: 15312 and 11348 and 14678
PtCAL-1a/PtCAL-2a; PtCAL-1a/PtCAL-2a +3, +8, +PtCAL-3, 2.00 hrs
  ion abundance of 9 (m/z 164.1434) over time: 132103 and 73247 and 110763
PtCAL-1a/PtCAL-2a; PtCAL-1a/PtCAL-2a +3, +8, +PtCAL-3, 4.00 hrs
  ion abundance of 9 (m/z 164.1434) over time: 477805 and 480278 and 470081
PtCAL-1a/PtCAL-2a; PtCAL-1a/PtCAL-2a +3, +8, +PtCAL-3, 8.00 hrs
  ion abundance of 9 (m/z 164.1434) over time: 1471863 and 934058 and 1569447
PtCAL-1a/PtCAL-2a; PtCAL-1a/PtCAL-2a +3, +8, +PtCAL-3, 24.00 hrs
  ion abundance of 9 (m/z 164.1434) over time: 2382612 and 1957618 and 2845113
